The values below come from patent publication US6858591B2, “Antibiotic AA 896 analogs” (Wyeth Holdings Corporation, priority 2001, dated 2005).

SMILES strings stand for the structures. In brackets after ≈: the same amount, converted by molar mass. Read-outs that look alike come from different tables or passages of the source.

What all share (assay): In vitro MIC, broth dilution
What all share (format): cell-based
Background: In broth dilution the organism is exposed to a series of concentrations in liquid medium.

One assay concerns E. cloacae GC 3783. The following applies: Enterobacter cloacae, GC3783; E. cloacae GC 3783; read-out: MIC.
The test system of a further assay is C. albicans GC 3066. The following applies: Candida albicans, GC3066; C. albicans GC 3066; read-out: MIC.
The next assay has as its system E. coli GC 2203. The following applies: Escherichia coli, GC2203; E. coli GC 2203; read-out: MIC.
The subject of another assay is S. marcescens GC 4077. Particulars: Serratia marcescens, GC4077; S. marcescens GC 4077; read-out: MIC.
The subject of another assay is M. morganii GC 4531. Particulars: Morganella morganii, GC4531; M. morganii GC 4531; read-out: MIC.
A further assay deals with E. coli GC 4559. The following applies: Escherichia coli, GC4559; E. coli GC 4559; read-out: MIC.
Another assay relates to P. aeruginosa GC 2214. Particulars: Pseudomonas aeruginosa, GC2214; P. aeruginosa GC 2214; read-out: MIC.
For a further assay, the system named is K. pneumoniae GC 4534. Particulars: Klebsiella pneumoniae, GC4534; K. pneumoniae GC 4534; read-out: MIC.
The subject of a further assay is S. aureus GC 2216. The following applies: Staphylococcus aureus, GC2216; S. aureus GC 2216; read-out: MIC. In a few lines: (§1)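 MIC = lowest antibiotic concentration preventing visible growth after 18 h at 35 °C, ambient air. Inoculum 5×10^5 CFU/ml; drug tested 64-0.06 μg/ml in Mueller-Hinton II broth following NCCLS guidance.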
The test system of another assay is S. aureus GC 4536. The following applies: Staphylococcus aureus, GC4536; S. aureus GC 4536; read-out: MIC. Summed up: as §1
The test system of the next assay is CNS GC 4538. Summed up:
as §1

Another assay relates to E. faecalis GC 2242. Particulars: Enterococcus faecalis, GC2242; E. faecalis GC 2242; read-out: MIC. In a few lines:
as §1

The test system of a further assay is CNS GC 4537. In a few lines: as §1
The test system of a further assay is S. aureus GC 1131. Particulars: Staphylococcus aureus, GC1131; S. aureus GC 1131; read-out: MIC. In a few lines: as §1
Another assay concerns CNS GC 4547. In a few lines:
as §1

In a further assay the test system is E. faecalis GC 4555. The following applies: Enterococcus faecalis, GC4555; E. faecalis GC 4555; read-out: MIC. Summed up: as §1
In another assay the test system is E. faecalis GC 842. The following applies: Enterococcus faecalis, GC842; E. faecalis GC 842; read-out: MIC. Summed up:
as §1

In another assay the test system is E. coli GC 4560. Particulars: Escherichia coli, GC4560; E. coli GC 4560; read-out: MIC.
A further assay concerns P. aeruginosa GC 4532. The following applies: Pseudomonas aeruginosa, GC4532; P. aeruginosa GC 4532; read-out: MIC.
The subject of the next assay is E. coli GC 3226. Particulars: Escherichia coli, GC3226; E. coli GC 3226; read-out: MIC.

On to `COc1ccc(Cn2c(=O)ccn([C@@H]3OC([C@H](O)[C@H](NCCCNC(=O)[C@@H](N)[C@H](C)O)C(=O)OC(C)(C)C)[C@@H](O)[C@H]3O)c2=O)cc1` (stereo partly drawn) [Example 45, tert-Butyl (2S,3R)-2-[(3-{[(2S,3S)-2-amino-3-hydroxybutanoyl]amino}propyl)amino]-3-[(3S,4R,5R)-3,4-dihydroxy-5-(3-(4-methoxybenzyl)-2,4-dioxo-3,4-dihydro-1(2H)-pyrimidinyl)-tetrahydro-2-furanyl]-3-hydroxypropanoate], for which the minimal inhibitory concentration (MIC) (commonly the smallest concentration in the dilution series that meets the test's criterion for growth inhibition) was more than 128 µg/mL in the assay on E. cloacae GC 3783; 128 µg/mL (≈ 196 µM) in the assay on C. albicans GC 3066; more than 128 µg/mL with E. coli GC 2203; more than 128 µg/mL with S. marcescens GC 4077; 128 µg/mL (≈ 196 µM) with M. morganii GC 4531; more than 128 µg/mL in the assay on E. coli GC 4559. The MIC is 128 µg/mL (≈ 196 µM) in the assay on P. aeruginosa GC 2214; more than 128 µg/mL with K. pneumoniae GC 4534; more than 128 µg/mL in the assay with S. aureus GC 2216; more than 128 µg/mL in the assay on S. aureus GC 4536; more than 128 µg/mL with CNS GC 4538 (CNS GC 4538, read-out: MIC); 128 µg/mL (≈ 196 µM) with E. faecalis GC 2242. Also, the MIC in the assay with CNS GC 4537 (CNS GC 4537, read-out: MIC) was more than 128 µg/mL; in the assay on S. aureus GC 1131, more than 128 µg/mL; in the assay with CNS GC 4547 (CNS GC 4547, read-out: MIC), more than 128 µg/mL; with E. faecalis GC 4555, more than 128 µg/mL; in the assay on E. faecalis GC 842, more than 128 µg/mL; in the assay on E. coli GC 4560, more than 128 µg/mL. Moreover, the values for the minimal inhibitory concentration (MIC) in the assay on P. aeruginosa GC 4532 and in the assay with E. coli GC 3226 were 128 µg/mL (≈ 196 µM) and more than 128 µg/mL, respectively.
On to `COc1ccc(Cn2c(=O)ccn([C@@H]3OC([C@H](O)[C@H](NCCCNC(=O)[C@@H](NC(=O)[C@H](CCCNC(=N)N[N+](=O)[O-])NC(=O)N[C@H](C(=O)OCc4ccccc4)C(C)C)C(C)O)C(=O)O)[C@@H](O)[C@H]3O)c2=O)cc1` (stereo partly drawn) [Example 47, (4S,8S,11S,18S)-18-[(R)-[(3S,4R,5R)-3,4-Dihydroxy-5-(3-(4-methoxybenzyl)-2,4-dioxo-3,4-dihydro-1(2H)-pyrimidinyl)tetrahydro-2-furanyl](hydroxy)methyl]-8-(3-{[(2,2-dioxido-2lambda˜1˜-diazanyl)(imino)methyl]amino}propyl)-11-[(1S)-1-hydroxyethyl]-4-isopropyl-3,6,9,12-tetraoxo-1-phenyl-2-oxa-5,7,10,13,17-pentaazanonadecan-19-oic acid], for which the minimal inhibitory concentration (MIC) in the assay with E. cloacae GC 3783 is more than 128 µg/mL; in the assay on C. albicans GC 3066 it was 128 µg/mL (≈ 124 µM); with E. coli GC 2203, more than 128 µg/mL; in the assay with S. marcescens GC 4077, 128 µg/mL (≈ 124 µM); with M. morganii GC 4531, 128 µg/mL (≈ 124 µM); in the assay with E. coli GC 4559, more than 128 µg/mL. The minimum inhibitory concentration (MIC) in the assay on P. aeruginosa GC 2214 was more than 128 µg/mL; in the assay on K. pneumoniae GC 4534, more than 128 µg/mL; in the assay with S. aureus GC 2216 it was more than 128 µg/mL; in the assay on S. aureus GC 4536 it was more than 128 µg/mL; against CNS GC 4538, more than 128 µg/mL; in the assay with E. faecalis GC 2242, 64 µg/mL (≈ 62.1 µM). Further, the minimum inhibitory concentration (MIC) was more than 128 µg/mL in the assay on CNS GC 4537; more than 128 µg/mL with S. aureus GC 1131; more than 128 µg/mL with CNS GC 4547; 128 µg/mL (≈ 124 µM) with E. faecalis GC 4555; 128 µg/mL (≈ 124 µM) in the assay with E. faecalis GC 842; 128 µg/mL (≈ 124 µM) with E. coli GC 4560. Moreover, the MIC with P. aeruginosa GC 4532 was 128 µg/mL (≈ 124 µM); with E. coli GC 3226 it was more than 128 µg/mL.
For `COc1ccc(Cn2c(=O)ccn([C@@H]3OC([C@H](O)[C@H](NCCCNC(=O)[C@@H](N)C(C)O)C(=O)O)[C@@H](O)[C@H]3O[Si](C)(C)C(C)(C)C)c2=O)cc1` (stereo partly shown) [Example 48], the minimum inhibitory concentration (MIC) in the assay on E. cloacae GC 3783 is more than 128 µg/mL; in the assay on C. albicans GC 3066, 128 µg/mL (≈ 180 µM); in the assay with E. coli GC 2203, more than 128 µg/mL; in the assay with S. marcescens GC 4077 it was 128 µg/mL (≈ 180 µM); in the assay with M. morganii GC 4531, 128 µg/mL (≈ 180 µM); in the assay on E. coli GC 4559 it was more than 128 µg/mL. Also, the MIC in the assay on P. aeruginosa GC 2214 is more than 128 µg/mL; in the assay on K. pneumoniae GC 4534, more than 128 µg/mL; in the assay on S. aureus GC 2216, more than 128 µg/mL; in the assay on S. aureus GC 4536 it was more than 128 µg/mL; in the assay on CNS GC 4538 (CNS GC 4538, read-out: MIC), more than 128 µg/mL; in the assay on E. faecalis GC 2242, 64 µg/mL (≈ 90.2 µM). Further, the MIC with CNS GC 4537 (CNS GC 4537, read-out: MIC) is more than 128 µg/mL; with S. aureus GC 1131, more than 128 µg/mL; in the assay with CNS GC 4547 (CNS GC 4547, read-out: MIC), 128 µg/mL (≈ 180 µM); with E. faecalis GC 4555 it was 128 µg/mL (≈ 180 µM); with E. faecalis GC 842, 128 µg/mL (≈ 180 µM); with E. coli GC 4560, 128 µg/mL (≈ 180 µM). For the same compound, the MIC was 128 µg/mL (≈ 180 µM) in the assay with P. aeruginosa GC 4532 and more than 128 µg/mL with E. coli GC 3226.
With `COc1ccc(Cn2c(=O)ccn([C@@H]3OC([C@H](O)[C@H](NCCCNC(=O)[C@H](CC(C)C)NC(=O)[C@H](CCCNC(=N)N[N+](=O)[O-])NC(=O)N[C@H](C(=O)OCc4ccccc4)C(C)C)C(=O)O)[C@@H](O)[C@H]3O)c2=O)cc1` (stereo partly drawn) [Example 49, (4S,8S,11S,18S)-18-[(R)-[(3S,4R,5R)-3,4-Dihydroxy-5-(3-(4-methoxybenzyl)-2,4-dioxo-3,4-dihydro-1(2H)-pyrimidinyl)tetrahydro-2-furanyl](hydroxy)methyl]-8-(3-{[(2,2-dioxido-2lambda˜1˜-diazanyl)(imino)methyl]amino}propyl)-11-isobutyl-4-isopropyl-3,6,9,12-tetraoxo-1-phenyl-2-oxa-5,7,10,13,17-pentaazanonadecan-19-oic acid], the MIC in the assay with E. cloacae GC 3783 was more than 128 µg/mL; in the assay with C. albicans GC 3066, 128 µg/mL (≈ 123 µM); in the assay with E. coli GC 2203, more than 128 µg/mL; in the assay on S. marcescens GC 4077, more than 128 µg/mL; in the assay on M. morganii GC 4531, 128 µg/mL (≈ 123 µM); in the assay on E. coli GC 4559, more than 128 µg/mL. In addition, the MIC with P. aeruginosa GC 2214 is 128 µg/mL (≈ 123 µM); in the assay on K. pneumoniae GC 4534, more than 128 µg/mL; with S. aureus GC 2216, more than 128 µg/mL; with S. aureus GC 4536, more than 128 µg/mL; with CNS GC 4538 it was more than 128 µg/mL; in the assay with E. faecalis GC 2242 it was 128 µg/mL (≈ 123 µM). In addition, the minimal inhibitory concentration (MIC) is more than 128 µg/mL in the assay on CNS GC 4537; more than 128 µg/mL in the assay with S. aureus GC 1131; more than 128 µg/mL in the assay on CNS GC 4547; more than 128 µg/mL with E. faecalis GC 4555; 128 µg/mL (≈ 123 µM) in the assay with E. faecalis GC 842; more than 128 µg/mL in the assay on E. coli GC 4560. Also, the MIC in the assay on P. aeruginosa GC 4532 is 128 µg/mL (≈ 123 µM); with E. coli GC 3226, more than 128 µg/mL.
For `COc1ccc(Cn2c(=O)ccn([C@@H]3OC([C@H](O)[C@H](NCCCNC(=O)[C@H](CC(C)C)NC(=O)[C@H](CCCNC(=N)N)NC(=O)N[C@H](C(=O)O)C(C)C)C(=O)O)[C@@H](O)[C@H]3O)c2=O)cc1` (stereo partly drawn) [Example 50, (2S,6S,9S,16S)-6-(3-{[Amino(imino)methyl]amino}propyl)-16-[(R)-[(3S,4R,5R)-3,4-dihydroxy-5-(3-(4-methoxybenzyl)-2,4-dioxo-3,4-dihydro-1(2H)-pyrimidinyl)tetrahydro-2-furanyl](hydroxy)-methyl]-9-isobutyl-2-isopropyl-4,7,10-trioxo-3,5,8,11,15-pentaazaheptadecane-1,17-dioic acid], the MIC with E. cloacae GC 3783 is more than 128 µg/mL; in the assay with C. albicans GC 3066, 128 µg/mL (≈ 141 µM); in the assay on E. coli GC 2203 it was more than 128 µg/mL; in the assay on S. marcescens GC 4077, more than 128 µg/mL; in the assay with M. morganii GC 4531, 128 µg/mL (≈ 141 µM); in the assay with E. coli GC 4559 it was more than 128 µg/mL. The MIC with P. aeruginosa GC 2214 is 128 µg/mL (≈ 141 µM); in the assay on K. pneumoniae GC 4534, more than 128 µg/mL; in the assay with S. aureus GC 2216 it was more than 128 µg/mL; with S. aureus GC 4536, more than 128 µg/mL; in the assay on CNS GC 4538 (CNS GC 4538, read-out: MIC), more than 128 µg/mL; in the assay on E. faecalis GC 2242 it was 128 µg/mL (≈ 141 µM). Further, the minimum inhibitory concentration (MIC) in the assay with CNS GC 4537 (CNS GC 4537, read-out: MIC) was more than 128 µg/mL; with S. aureus GC 1131, more than 128 µg/mL; in the assay with CNS GC 4547 (CNS GC 4547, read-out: MIC), more than 128 µg/mL; with E. faecalis GC 4555, more than 128 µg/mL; in the assay on E. faecalis GC 842 it was more than 128 µg/mL; in the assay with E. coli GC 4560, more than 128 µg/mL. The MIC was 128 µg/mL (≈ 141 µM) in the assay on P. aeruginosa GC 4532 and more than 128 µg/mL in the assay with E. coli GC 3226.
